Earlier results in patent US20050182026A1, “Use of phospholipids in peritoneal dialysis” (priority 2002, published 2005).

Assays:
[1] = system: respiratory distress syndrome; conditions: various physical forms, used for two decades in newborns

solubility in water: highly insoluble in water
critical micelle concentration (in water): 5×10^−10 Molar
Compound: CCCCCCCCCCCCCCCC(=O)OC[C@H](COP(=O)([O-])OCC[N+](C)(C)C)OC(=O)CCCCCCCCCCCCCCC [DPPC, dipalmitoylphosphatidylcholine]
safety in clinical use [1]: complete safety
